Patent US4954490A, “11 β-substituted progesterone analogs” (Research Triangle Institute, priority 1988, dated 1990)
Entries after “also recorded” stand apart in the source; their conditions may differ.

What was measured:
progesterone receptor = biological target: T1, progesterone receptor (Oryctolagus cuniculus, UniProt P06186); assay: Relative binding affinity to progesterone receptor in uterine cytosol (displacement of tritium-labeled progesterone); design: species or system rabbit (estrogen-primed immature female); conditions: for P-RBA/G-RBA: ratio of RBA values for progesterone receptor to glucocorticoid receptor; for Progestin RBA: relative to progesterone (=100), rabbit uterine cytosol
T1 construct: in the cytosol obtained from estrogen-primedimmature rabbit uterus; from tissue; host or cells: uterine cytosol of estrogen-primed immature female rabbits
T1 sequence (P06186 1-930): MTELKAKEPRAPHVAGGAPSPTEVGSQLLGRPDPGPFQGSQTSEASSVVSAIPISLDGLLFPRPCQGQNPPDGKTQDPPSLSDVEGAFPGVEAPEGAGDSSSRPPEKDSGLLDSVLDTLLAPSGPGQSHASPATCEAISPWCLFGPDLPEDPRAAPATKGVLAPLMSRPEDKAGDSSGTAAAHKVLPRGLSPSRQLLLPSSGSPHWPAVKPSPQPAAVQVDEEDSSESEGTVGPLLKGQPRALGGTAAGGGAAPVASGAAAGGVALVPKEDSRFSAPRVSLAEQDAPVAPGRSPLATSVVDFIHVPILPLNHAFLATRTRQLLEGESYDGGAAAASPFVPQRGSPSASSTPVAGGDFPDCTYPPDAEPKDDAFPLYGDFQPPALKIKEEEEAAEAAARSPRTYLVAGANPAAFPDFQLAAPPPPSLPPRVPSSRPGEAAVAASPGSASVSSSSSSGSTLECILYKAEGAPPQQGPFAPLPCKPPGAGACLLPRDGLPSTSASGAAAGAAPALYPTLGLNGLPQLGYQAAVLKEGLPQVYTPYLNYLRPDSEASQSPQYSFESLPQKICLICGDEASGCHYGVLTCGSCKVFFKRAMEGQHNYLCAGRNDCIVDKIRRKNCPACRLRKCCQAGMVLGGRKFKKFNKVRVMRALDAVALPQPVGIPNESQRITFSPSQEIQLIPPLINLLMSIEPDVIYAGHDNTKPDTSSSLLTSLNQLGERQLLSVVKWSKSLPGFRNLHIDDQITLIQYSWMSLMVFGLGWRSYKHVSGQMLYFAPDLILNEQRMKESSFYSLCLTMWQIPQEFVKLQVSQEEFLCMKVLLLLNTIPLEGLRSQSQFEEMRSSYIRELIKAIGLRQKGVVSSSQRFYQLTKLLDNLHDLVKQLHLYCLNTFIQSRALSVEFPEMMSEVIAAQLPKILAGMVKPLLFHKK
Protocol: (§1) The in vitro activity of the subject compounds was determined by measuring the binding affinities (RBA) of these compounds relative to progesterone for the progesterone receptor in the cytosol obtained from estrogen-primedimmature rabbit uterus and by measuring the RBA relative to dexamethasone for the glucocorticoid receptor from thymus of adrenalectomized rats. These assays were carried out by the procedures of J. R. Reel et al., Fertility and Sterility, 31, 552 (1979) (progesterone) and G. P. Chrousos et al., Endocrinology, 107, 472 (1980) (glucocorticoid).
^a Relative ability to displace tritiumlabeled progesterone from the
receptor in uterine cytosol from estrogenprimed immature female rabbits a
compared with progesterone (=100).

glucocorticoid receptor = biological target: T2, glucocorticoid receptor (Rattus norvegicus, UniProt P06536); assay: Relative binding affinity to glucocorticoid receptor of thymus (displacement of tritium-labeled dexamethasone); design: species or system rat (adrenalectomized); conditions: relative to dexamethasone (=100)
T2 construct: glucocorticoid receptor from thymus of adrenalectomized rats; from tissue; host or cells: thymus of adrenalectomized rats
T2 sequence (P06536 1-795): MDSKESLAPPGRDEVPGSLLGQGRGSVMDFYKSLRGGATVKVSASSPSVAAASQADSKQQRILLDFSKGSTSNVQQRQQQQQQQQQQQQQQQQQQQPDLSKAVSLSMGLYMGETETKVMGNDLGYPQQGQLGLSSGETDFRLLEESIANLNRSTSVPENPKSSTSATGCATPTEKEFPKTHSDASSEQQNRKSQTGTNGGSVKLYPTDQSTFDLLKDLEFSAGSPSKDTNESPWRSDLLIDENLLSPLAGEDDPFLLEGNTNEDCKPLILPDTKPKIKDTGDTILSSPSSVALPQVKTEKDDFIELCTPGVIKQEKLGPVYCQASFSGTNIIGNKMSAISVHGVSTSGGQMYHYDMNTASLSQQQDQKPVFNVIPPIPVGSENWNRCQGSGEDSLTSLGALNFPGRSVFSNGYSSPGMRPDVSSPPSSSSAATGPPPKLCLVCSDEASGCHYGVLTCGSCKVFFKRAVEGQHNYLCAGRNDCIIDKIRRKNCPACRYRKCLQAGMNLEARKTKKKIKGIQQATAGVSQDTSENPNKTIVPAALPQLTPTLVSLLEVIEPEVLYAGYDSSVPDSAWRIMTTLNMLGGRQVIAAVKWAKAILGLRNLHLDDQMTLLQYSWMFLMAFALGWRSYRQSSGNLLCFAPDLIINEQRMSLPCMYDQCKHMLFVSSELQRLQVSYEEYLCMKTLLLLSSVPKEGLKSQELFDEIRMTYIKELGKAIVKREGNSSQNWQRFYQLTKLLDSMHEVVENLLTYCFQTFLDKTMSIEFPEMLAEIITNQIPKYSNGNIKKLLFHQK
Protocol: as §1
^b Relative ability to displace tritiumlabeled dexamethasone from the
receptor of the thymus of adrenalectomized rats as compared to […]

[1] = system: endometrial response due to subcutaneous administration of progesterone; assay: Anti-McGinty intrauterine antiprogestational test; format: in vivo, estrogen-primed immature female rabbits; conditions: for ED90 (actual dose) / ED50 / ED90 (calculated): intrauterine; for ED50 / ED90 (calculated): from % Inhib = a + b · ln dose
Protocol: The antiprogestational activity of the compounds was studied after both intrauterine and oral administration. In each case the compound was tested for its ability to inhibit the endometrial response due to subcutaneous administration of progesterone to estrogen-primed immature female rabbits. The methodology used for the intrauterine test has been described by D. A. McGinty et al. See Endocrinology, 24, 829 (1939). For oral administration of test compounds, the method used was analogous to that of Clauberg. See Clauberg, Zentr. Gynakol., 54, 2757 (1930) as modified by McPhail J. Physiol. (London), 83, 145 (1935). Each active compound was characterized by a dose-related ability to block the progestational effect of simultaneously administered progesterone. When the percent inhibition was plotted versus the log of the dose, linear relationships were obtained. Linear regression analysis permitted calculation of the ED50 and ED90 values (the doses required for 50% and 90% inhibition of the progesterone effect, respectively). The actual dose which gave 90% or more inhibition is also given, although this value is probably less accurate than the calculated values which are based on the dose-response line. […] Since the intrauterine administration bypasses most of the drug-metabolizing systems of the body, especially the liver, intrinsic activity is expected to correlate reasonably well with binding activity to the receptor, according to currently held hypotheses regarding receptor binding.

[2] = system: endometrial response due to subcutaneous administration of progesterone; assay: Oral antiprogestational activity (Anti-Clauberg); format: in vivo, estrogen-primed immature female rabbits; conditions: for % Inhibition: based on change in McPhail Index; for McPhail Index: scale 0-4; for Wt of Uterus: ± SD
Protocol: The antiprogestational activity of the compounds was studied after both intrauterine and oral administration. In each case the compound was tested for its ability to inhibit the endometrial response due to subcutaneous administration of progesterone to estrogen-primed immature female rabbits. The methodology used for the intrauterine test has been described by D. A. McGinty et al. See Endocrinology, 24, 829 (1939). For oral administration of test compounds, the method used was analogous to that of Clauberg. See Clauberg, Zentr. Gynakol., 54, 2757 (1930) as modified by McPhail J. Physiol. (London), 83, 145 (1935).

[3] = system: endometrial proliferation (McPhail Index); assay: Progestational activity, intrauterine (McGinty assay); format: in vivo, estrogen-primed immature female rabbits; conditions: right horn control 0
Protocol: In this assay estrogen-primed immature female rabbits are treated by injection of the test compound into the left horn of the uterus while the right horn is left untreated as a control. Each horn is then scored for endometrial proliferation by the McPhail Index. […] It indicates a possible need for reassessment of the current hypotheses regarding the effect of this substituent on antagonist versus agonist activity.

[4] = actual dose giving ≥ 90% inhibition
[5] = total oral dose 1.0 mg, total SC progesterone 0.8 mg, N=6
[6] = total oral dose 5.0 mg, total SC progesterone 0.8 mg, N=6
[7] = total oral dose 10.0 mg, total SC progesterone 0.8 mg, N=5
[8] = progesterone alone, total SC dose 0.8 mg, no oral compound, N=6

| P-RBA/G-RBA (progesterone receptor) | Progestin RBA (progesterone receptor) | Glucocort. RBA (glucocorticoid receptor) | Structure (SMILES) | ED90 (actual dose) [1, 4] | ED50 [1] | ED90 (calculated) [1] | further results |
| --- | --- | --- | --- | --- | --- | --- | --- |
| 0.42 | 61 | 246 | CC[C@@H]1C[C@H]2[C@@H]3C[C@H](C)C4=CC(=O)CCC4=C3[C@@H](c3ccc(N(C)C)cc3)C[C@]2(C)[C@H]1C(C)=O [Compound 15a, 6α-Methyl-16α-ethyl-11β-(4-N,N-dimethylaminophenyl)-19-norpregna-4,9-diene-3,20-dione] | – | – | – | ED90 (actual dose) ([1]; footnote c: no inhibition at tested dose): < 10 µg; McPhail Index, Left Horn (Treated) ([3]; dose 20.0 μg intrauterine): 3.8 ± 0.12; McPhail Index, Left Horn (Treated) ([3]; dose 40.0 μg intrauterine): 3.9 ± 0.12; McPhail Index, Left Horn (Treated) ([3]; dose 80.0 μg intrauterine): 3.8 ± 0.12 |
| – | 8 | – | CC(=O)C1=CC[C@H]2[C@@H]3CCC4=CC(=O)CCC4=C3[C@@H](c3ccc(N(C)C)cc3)C[C@]12C [Compound 23, 11β-(4-N,N-Dimethylaminophenyl)-19-norpregna-4,9,16-triene-3,20-dione] | 1.0 µg | 0.26 µg | 0.81 µg | binding to the progesterone receptor (in words) (progesterone receptor): binds relatively weakly to the progesterone receptor; RBA as fraction of the value of the 17α-acetoxy compounds (progesterone receptor; compared with the 17α-acetoxy compounds): less than one-fifth; antiprogestational activity in vivo (in words) ([1]; rabbit, in vivo, listed as Δ-16 compound): even more potent activity; also recorded: exhibits strong antiprogestational activity |
| 0.45 | 48 | 106 | CC[C@@H]1C[C@H]2[C@@H]3C[C@@H](C)C4=CC(=O)CCC4=C3[C@@H](c3ccc(N(C)C)cc3)C[C@]2(C)[C@H]1C(C)=O [H, Et, β-CH3, 68-methyl-16α-ethyl-118-(4-N,N-dimethylaminophenyl)-19-norpregna-4,9-diene-3,20-dione] | – | – | – | – |
| – | 15 | – | CC(=O)O[C@]1(C(C)=O)CC[C@H]2[C@@H]3C[C@@H](C)C4=CC(=O)CCC4=C3[C@@H](c3ccc(N(C)C)cc3)C[C@@]21C [OAc, H, β-CH3] | – | – | – | – |
| 0.37 | 15 | 41 | CC(=O)[C@@]1(O)CC[C@H]2[C@@H]3CCC4=CC(=O)CCC4=C3[C@@H](c3ccc(N(C)C)cc3)C[C@@]21C [OH, H, H] | – | – | – | – |
| 0.26 | 46 | 175 | CC(=O)[C@@]1(O)CC[C@H]2[C@@H]3C[C@H](C)C4=CC(=O)CCC4=C3[C@@H](c3ccc(N(C)C)cc3)C[C@@]21C [OH, H, α-CH3] | – | – | – | – |
| – | – | – | CC(=O)[C@H]1CC[C@H]2[C@@H]3CCC4=CC(=O)CC[C@]4(C)[C@H]3CC[C@]12C [Progesterone, progesterone] | – | – | – | Wt of Uterus [2, 8]: 3.06 ± 0.45 g; McPhail Index [2, 8]: 3.96 ± 0.04 |

| Structure (SMILES) | P-RBA/G-RBA (progesterone receptor) | Progestin RBA (progesterone receptor) | Glucocort. RBA (glucocorticoid receptor) | ED90 (actual dose) [1, 4] | ED50 [1] | ED90 (calculated) [1] | further results |
| --- | --- | --- | --- | --- | --- | --- | --- |
| CC(=O)O[C@]1(C(C)=O)CC[C@H]2[C@@H]3CCC4=CC(=O)CCC4=C3[C@@H](c3ccc(N(C)C)cc3)C[C@@]21C [Compound 8a, 17α-acetoxy-11β-(4-N,N-dimethylaminophenyl)-19-norpregna-4,9-diene-3,20-dione] | 0.24 | 47 | 198 | 2.0 µg | 0.41 µg | 1.2 µg | – |
| CC(=O)O[C@]1(C(C)=O)CC[C@H]2[C@@H]3C[C@H](C)C4=CC(=O)CCC4=C3[C@@H](c3ccc(N(C)C)cc3)C[C@@]21C [Compound 8b, 6α-methyl-17α-acetoxy-11β-(4-N,N-dimethylaminophenyl)-19-norpregna-4,9-diene-3,20-dione] | 0.18 | 43 | 242 | 2.0 µg | 0.54 µg | 1.9 µg | % Inhibition [2, 5]: 12.7 ± 3.0%; % Inhibition [2, 6]: 51.6 ± 12.2%; % Inhibition [2, 7]: 67.2 ± 6.1%; McPhail Index [2, 5]: 3.46 ± 0.12; McPhail Index [2, 6]: 1.92 ± 0.48; McPhail Index [2, 7]: 1.30 ± 0.24; Wt of Uterus [2, 5]: 3.26 ± 0.34 g; Wt of Uterus [2, 6]: 2.14 ± 0.22 g; Wt of Uterus [2, 7]: 2.24 ± 0.27 g |
